The record followed here is US8748453B2, “Substituted heterocyclic compounds as kinases inhibitors and methods of use thereof” (Medolution Limited, priority 2009, dated 2014).

A short description of data set [1]: Pharmacokinetics after IV administration to Sprague-Dawley rats. The following applies: rat, in vivo; for clearance: read-out: mean Clearance (CL) (converted); for half-life: read-out: mean elimination half-life (T1/2) (converted).
The next data set deals with T1, ErbB2/HER2 (Homo sapiens, UniProt P04626).
T1 construct: Recombinant catalytic domain, amino acids 679-1255, GST tagged, purified from insect cells; GST; host or cells: insect cells
Briefly: Radiometric kinase assay, ErbB2/HER2. Type of data set: biochemical. Conditions: read-out: potency (IC50) over Her-2 assay. The method, then: (§1) Base Reaction buffer: 20 mM Hepes (pH 7.5), 10 mM MgCl2, 1 mM EGTA, 0.02% Brij35, 0.02 mg/ml BSA, 0.1 mM Na3VO4, 2 mM DTT, 1% DMSO. *Required cofactors are added individually to each kinase reaction
(§2) Prepare indicated substrate in freshly prepared Base Reaction Buffer • Deliver any required cofactors to the substrate solution above • Deliver indicated kinase into the substrate solution and gently mix • Deliver compounds in DMSO into the kinase reaction mixture • Deliver ^33P-ATP (specific activity 0.01 μCi/μl final) into the reaction mixture to initiate the reaction.
ErbB2/HER2—Genbank Accession # X03363. […] Final concentration in assay=50 nM. Substrate: pEY. Peptide sequence: Poly Glu-Tyr, 4:1 ratio. Final concentration in assay=0.2 mg·mL. 2 mM MnCl2 is added as a cofactor to the reaction mixture
(§3) Compounds in accordance with the practice of the present invention were tested in kinase assays employing high throughput radiometric techniques and nanoliter volume technology (Reaction Biology Corporation, Malvern Pa.).

Another data set addresses T2, EGFR (Homo sapiens, UniProt P00533).
T2 construct: Recombinant catalytic domain, amino acids 668-1210, GST tagged, purified from insect cells; GST; host or cells: insect cells
Briefly: Radiometric kinase assay, EGFR. Type of data set: biochemical. Conditions: read-out: potency (IC50) over EGFR assay. The method, then: as §1, §2
Activated in vitro via autophosphorylation. Final concentration in assay=4 nM. Substrate: pEY. Peptide sequence: Poly Glu-Tyr, 4:1 ratio. Final concentration in assay=0.2 mg·mL. 2 mM MnCl2 is added as a cofactor to the reaction mixture
as §3

Another data set deals with NCI-H1650. Nature of the data set: Human tumor cell-line growth assay, NCI-H1650. Type of data set: cell-based. Conditions: NCI-H1650 (EGFR mutant E746-A750), 10-dose, 3-fold dilution starting at 10 μM, read-out: IC50 growth inhibition NCI-H1650. As for the experimental part:
(§4) Invention compounds were tested in human tumor cell-line growth assays.

The next data set has as its system SKBR3. Briefly: Human tumor cell-line growth assay, SKBR3. It is filed as cell-based. The following applies: SK-BR-3, SKBR3 (overexpressing EGFR and ErbB2), 10-dose, 3-fold dilution starting at 10 μM, read-out: IC50 growth inhibition SKBR3. The method, then:
as §4

A further data set has as its system A549. Briefly: Human tumor cell-line growth assay, A549. It is filed as cell-based. Conditions: 10-dose, 3-fold dilution starting at 10 μM, read-out: IC50 growth inhibition A549. The method, then:
as §4

A further data set deals with A431. Briefly: Human tumor cell-line growth assay, A431. Conditions: A-431, A431 (overexpressing EGFR), 10-dose, 3-fold dilution starting at 10 μM, read-out: IC50 growth inhibition A431. Type of data set: cell-based. The method, then: as §4
A further data set relates to BT-474. Nature of the data set: Human tumor cell-line growth assay, BT-474. It is filed as cell-based. The following applies: BT-474 (overexpressing ErbB2), 10-dose, 3-fold dilution starting at 10 μM, read-out: IC50 growth inhibition BT-474. As for the experimental part:
as §4

The next data set concerns NCI-H1975. Nature of the data set: Human tumor cell-line growth assay, NCI-H1975. It is filed as cell-based. The following applies: NCI-H1975 (EGFR mutant L858R/T790M), 10-dose, 3-fold dilution starting at 10 μM, read-out: IC50 growth inhibition NCI-H1975. As for the experimental part: as §4

T2 sequence (P00533 668-1210): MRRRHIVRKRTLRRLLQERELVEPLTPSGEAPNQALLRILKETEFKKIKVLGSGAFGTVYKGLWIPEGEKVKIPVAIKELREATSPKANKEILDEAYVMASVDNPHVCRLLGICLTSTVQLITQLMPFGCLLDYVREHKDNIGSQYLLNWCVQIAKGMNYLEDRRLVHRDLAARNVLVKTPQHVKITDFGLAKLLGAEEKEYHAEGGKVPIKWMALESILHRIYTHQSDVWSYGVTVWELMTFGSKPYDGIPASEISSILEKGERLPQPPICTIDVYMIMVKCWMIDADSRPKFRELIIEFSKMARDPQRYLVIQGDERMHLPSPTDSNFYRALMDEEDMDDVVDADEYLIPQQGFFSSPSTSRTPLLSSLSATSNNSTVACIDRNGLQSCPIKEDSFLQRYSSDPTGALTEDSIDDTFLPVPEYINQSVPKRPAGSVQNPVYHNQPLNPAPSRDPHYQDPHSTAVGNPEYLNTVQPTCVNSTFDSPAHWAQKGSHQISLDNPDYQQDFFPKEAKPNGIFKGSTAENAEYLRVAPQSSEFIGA
T1 sequence (P04626 679-1255): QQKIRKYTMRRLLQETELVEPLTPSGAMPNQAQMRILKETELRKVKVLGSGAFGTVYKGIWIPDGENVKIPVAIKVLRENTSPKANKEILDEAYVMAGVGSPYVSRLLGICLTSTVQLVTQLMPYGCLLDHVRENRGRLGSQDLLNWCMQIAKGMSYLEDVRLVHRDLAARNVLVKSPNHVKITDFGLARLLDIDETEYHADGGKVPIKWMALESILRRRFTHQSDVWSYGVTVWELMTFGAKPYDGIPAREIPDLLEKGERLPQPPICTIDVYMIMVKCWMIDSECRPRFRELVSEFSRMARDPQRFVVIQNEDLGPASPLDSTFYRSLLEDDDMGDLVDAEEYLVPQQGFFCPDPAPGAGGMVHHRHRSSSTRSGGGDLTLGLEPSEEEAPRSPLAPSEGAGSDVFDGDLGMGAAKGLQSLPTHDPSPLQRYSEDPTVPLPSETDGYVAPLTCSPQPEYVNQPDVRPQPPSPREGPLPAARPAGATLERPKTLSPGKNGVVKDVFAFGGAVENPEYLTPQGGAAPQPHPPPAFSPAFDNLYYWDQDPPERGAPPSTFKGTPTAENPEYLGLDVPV

Turning to `[2H]C([2H])([2H])N(C/C=C/C(=O)Nc1cc2c(Nc3cccc(C#C)c3)c(C#N)cnc2cc1OCC)C([2H])([2H])[2H]` [Compound B, (E)-N-(3-cyano-7-ethoxy-4-(3-ethynylphenylamino)quinolin-6-yl)-4-(dimethyl-d6-amino)but-2-enamide], in [1], the clearance (commonly a measure of how efficiently the substance is removed, as volume per time) is 2.82 L/h/kg and the half-life was 8.76 h. The IC50 (usually the concentration needed to halve the response being measured) on ErbB2/HER2 is below 1 µM. Besides, the 50% inhibitory concentration (IC50) at EGFR was below 1 µM.

In the case of `[2H]C([2H])([2H])N(C/C=C/C(=O)Nc1cc2c(Nc3ccc(OCc4ccccn4)c(Cl)c3)c(C#N)cnc2cc1OCCOC)C([2H])([2H])[2H]` [Example 7], the IC50 on ErbB2/HER2 and at EGFR was below 1 µM throughout.

As for `CCOc1cc2ncc(C#N)c(Nc3ccc(OCc4ccccn4)c(Cl)c3)c2cc1NC(=O)/C=C/CN(C)C` [HKI272, reference compound], the half-life in [1] is 5.28 h.

Take `[2H]C([2H])([2H])N(C/C=C/C(=O)Nc1cc2c(Nc3ccc(OCc4ccccn4)c(Cl)c3)c(C#N)cnc2cc1OCC)C([2H])([2H])[2H]` [Compound A, (E)-N-{4-[3-chloro-4-(2-pyridinylmethoxy)aniline]-3-cyano-7-ethoxy-6-quinolinyl}-4-(dimethyl-d6-amino)-2-butenamide]: in data set [1], the half-life is 6.59 h.

With `C#Cc1cccc(Nc2c(C#N)cnc3cc(OCC)c(NC(=O)/C=C/CN(C)C)cc23)c1` [Compound C, (E)-N-(3-cyano-7-ethoxy-4-(3-ethynylphenylamino)quinolin-6-yl)-4-(dimethylamino)but-2-enamide], the IC50 was below 10 µM in the data set on NCI-H1650; below 1 µM with SKBR3; below 1 µM in the data set with A549; below 1 µM with A431; below 1 µM with BT-474; below 10 µM in the data set with NCI-H1975. Further, the concentration for half-maximal inhibition (IC50) on ErbB2/HER2 and on EGFR was below 1 µM throughout. The clearance in data set [1] was 3.58 L/h/kg. In addition, the half-life in data set [1] is 5.37 h.
